The values below come from patent US10730863B2, “Bridged bicyclic compounds as farnesoid X receptor modulators” (BRISTOL-MYERS SQUIBB COMPANY, priority 2017, dated 2020).

Chain of FXR (Q96RI1 262-486): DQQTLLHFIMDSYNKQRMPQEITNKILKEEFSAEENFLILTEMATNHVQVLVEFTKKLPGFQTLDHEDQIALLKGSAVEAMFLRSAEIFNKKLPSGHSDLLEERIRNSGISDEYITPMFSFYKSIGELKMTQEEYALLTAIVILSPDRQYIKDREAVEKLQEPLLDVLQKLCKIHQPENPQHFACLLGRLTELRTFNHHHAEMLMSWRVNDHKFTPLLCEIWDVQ

This assay addresses FXR (Homo sapiens (Human), UniProt Q96RI1). Put plainly: FXR EC50 (FXR agonist activity reported with each example). Type of assay: cell-based.
`COc1ccc(-c2noc(C34CCC(OCc5c(-c6c(Cl)cncc6Cl)noc5C5CC5)(CC3)CC4)n2)nc1C(=O)O` [Example 253, 6-(5-(4-((5-cyclopropyl-3-(3,5-dichloropyridin-4-yl)isoxazol-4-yl)methoxy)bicyclo[2.2.2]octan-1-yl)-1,2,4-oxadiazol-3-yl)-3-methoxypicolinic acid]: a half-maximal effect (EC50) was put at 740 nM. Consider `NC(=O)c1cccc(OCC23CCC(OCc4c(-c5c(Cl)cccc5Cl)noc4C4CC4)(CC2)CC3)n1` [Example 117, 6-((4-((5-cyclopropyl-3-(2,6-dichlorophenyl)isoxazol-4-yl)methoxy)bicyclo[2.2.2]octan-1-yl)methoxy)picolinamide], for which the EC50 is 310 nM. In the case of `O=C(O)c1ccc(OC2CCC2)c2nc(OCC34CCC(OCc5c(-c6c(Cl)cncc6Cl)noc5C5CC5)(CC3)CC4)ccc12` [Example 349, 8-cyclobutoxy-2-((4-((5-cyclopropyl-3-(3,5-dichloropyridin-4-yl)isoxazol-4-yl)methoxy)bicyclo[2.2.2]octan-1-yl)methoxy)quinoline-5-carboxylic acid], the EC50 was 130 nM. Regarding `O=C(O)Cc1ccc(/C=C/C23CCC(OCc4c(-c5c(Cl)cncc5Cl)noc4C4CC4)(CC2)CC3)cc1` [Example 516, (E)-2-(4-(2-(4-((5-cyclopropyl-3-(3,5-dichloropyridin-4-yl)isoxazol-4-yl)methoxy)bicyclo[2.2.2]octan-1-yl)vinyl)phenyl)acetic acid], a half-maximal response (EC50) required 173 nM. The figure for `NC(=O)c1cc(C(F)(F)F)cc(C23CCC(COCc4c(-c5c(Cl)cncc5Cl)noc4C4CC4)(CC2)CO3)c1` [Example 489, 3-(4-(((5-cyclopropyl-3-(3,5-dichloropyridin-4-yl)isoxazol-4-yl)methoxy)methyl)-2-oxabicyclo[2.2.2]octan-1-yl)-5-(trifluoromethyl)benzamide] is 1400 nM; for `NC(=O)c1cc(-c2noc(C34CCC(/C=C/c5c(-c6c(Cl)cncc6Cl)noc5C5CC5)(CC3)CC4)n2)cc(C(F)(F)F)c1` [Example 441, (E)-3-(5-(4-(2-(5-cyclopropyl-3-(3,5-dichloropyridin-4-yl)isoxazol-4-yl)vinyl)bicyclo[2.2.2]octan-1-yl)-1,2,4-oxadiazol-3-yl)-5-(trifluoromethyl)benzamide] it is 150 nM; for `CC(C)Oc1nc(C(=O)O)cc2ccc(/C=C/C34CCC(OCc5c(-c6c(Cl)cncc6Cl)noc5C5CC5)(CC3)CC4)cc12` [Example 518, (E)-7-(2-(4-((5-cyclopropyl-3-(3,5-dichloropyridin-4-yl)isoxazol-4-yl)methoxy)bicyclo[2.2.2]octan-1-yl)vinyl)-1-isopropoxyisoquinoline-3-carboxylic acid] it is 62 nM. Regarding `O=C(O)c1ccc(-c2noc(C34CCC(OCc5c(-c6c(Cl)cccc6Cl)noc5C5CC5)(CC3)CC4)n2)nc1` [Example 9, 6-(5-(4-((5-cyclopropyl-3-(2,6-dichlorophenyl)isoxazol-4-yl)methoxy)bicyclo[2.2.2]octan-1-yl)-1,2,4-oxadiazol-3-yl)nicotinic acid], the EC50 is 950 nM. The figure for `O=C(O)c1ccc(C23CCC(COCc4c(-c5ccccc5OC(F)(F)F)noc4C4CC4)(CC2)CO3)cc1` [Example 205] is 450 nM; for `O=C(O)c1cccc(NC(=O)C23CCC(C=Cc4c(-c5c(Cl)cccc5Cl)noc4C4CC4)(CC2)CC3)c1` [Example 190] it is 3500 nM. `COC(=O)c1ccc(-c2noc(C34CCC(COCc5c(-c6ccccc6OC(F)(F)F)noc5C5CC5)(CC3)CC4)n2)cc1` [Example 155] displayed an EC50 of 2500 nM. Take `COc1cc(C(=O)O)nc2ccc(OCC34CCC(OCc5c(-c6c(Cl)cncc6Cl)noc5C5CC5)(CC3)CC4)cc12` [Example 282, 6-((4-((5-cyclopropyl-3-(3,5-dichloropyridin-4-yl)isoxazol-4-yl)methoxy)bicyclo[2.2.2]octan-1-yl)methoxy)-4-methoxyquinoline-2-carboxylic acid]: the concentration giving a half-maximal response (EC50) amounted to 60 nM. `O=C(O)c1cccc(-c2noc(C34CCC(OCc5c(-c6ccccc6C(F)(F)F)noc5C5CC5)(CC3)CC4)n2)n1` [Example 48] displayed an EC50 of 2100 nM. The figure for `O=C(O)c1cc(OC2COC2)c2cc(OCC34CCC(OCc5c(-c6c(Cl)cncc6Cl)noc5C5CC5)(CC3)CC4)ccc2n1` [Example 361] is 71 nM.

Molecule `COC(=O)c1cccc(NC(=O)C23CCC(C=Cc4c(-c5c(Cl)cccc5Cl)noc4C4CC4)(CC2)CC3)c1` [Example 187] displayed a concentration for a half-maximal effect (EC50) of 3000 nM. `O=C(O)c1ccc2cc(C#CC34CCC(OCc5c(-c6c(Cl)cncc6Cl)noc5C5CC5)(CC3)CC4)ccc2n1` [Example 382] came in with an EC50 of 62 nM.

Molecule `O=C(O)c1cncc(OCC23CCC(OCc4c(-c5c(Cl)cccc5Cl)noc4C4CC4)(CC2)CC3)c1` [Example 109, 5-((4-((5-cyclopropyl-3-(2,6-dichlorophenyl)isoxazol-4-yl)methoxy)bicyclo[2.2.2]octan-1-yl)methoxy)nicotinic acid] yielded an EC50 of 150 nM.

Regarding `Cn1cc(C(=O)O)c2ccc(OCC34CCC(OCc5c(-c6c(Cl)cncc6Cl)noc5C5CC5)(CC3)CC4)cc21` [Example 97, 6-((4-((5-cyclopropyl-3-(3,5-dichloropyridin-4-yl)isoxazol-4-yl)methoxy)bicyclo[2.2.2]octan-1-yl)methoxy)-1-methyl-1H-indole-3-carboxylic acid], the EC50 worked out at 28 nM. The figure for `COC(=O)c1cccc(-c2noc(C34CCC(C=Cc5c(-c6c(Cl)cccc6Cl)noc5C5CC5)(CC3)CC4)n2)c1` [Intermediate 159F, methyl 3-(5-(4-(2-(5-cyclopropyl-3-(2,6-dichlorophenyl)isoxazol-4-yl)vinyl)bicyclo[2.2.2]octan-1-yl)-1,2,4-oxadiazol-3-yl)benzoate] is 4600 nM. `O=C(O)C1(c2cccc(C(O)C34CCC(OCc5c(-c6c(Cl)cccc6Cl)noc5C5CC5)(CC3)CC4)c2)CC1` (stereo not shown) [Example 129, 1-(3-((4-((5-cyclopropyl-3-(2,6-dichlorophenyl)isoxazol-4-yl)methoxy)bicyclo[2.2.2]octan-1-yl)(hydroxy)methyl)phenyl)cyclopropane-1-carboxylic acid] yielded an EC50 of 3000 nM. Molecule `O=C(O)c1cc(-c2noc(C34CCC(OCc5c(-c6c(Cl)cncc6Cl)noc5C5CC5)(CC3)CC4)n2)cc(OC2CCC2)n1` [Example 261, 6-cyclobutoxy-4-(5-(4-((5-cyclopropyl-3-(3,5-dichloropyridin-4-yl)isoxazol-4-yl)methoxy)bicyclo[2.2.2]octan-1-yl)-1,2,4-oxadiazol-3-yl)picolinic acid] displayed an EC50 of 36 nM. `COC(=O)c1ccc(C23CCC(CNc4c(-c5c(Cl)cccc5Cl)noc4C4CC4)(CC2)CO3)cc1` [Intermediate 203A, methyl 4-(4-(((5-cyclopropyl-3-(2,6-dichlorophenyl)isoxazol-4-yl)amino)methyl)-2-oxabicyclo[2.2.2]octan-1-yl)benzoate] yielded an EC50 of 2800 nM. The molecule `COCc1cc(OCC23CCC(OCc4c(-c5c(Cl)cncc5Cl)noc4C4CC4)(CC2)CC3)cnc1C(=O)O` [Example 293, 5-((4-((5-cyclopropyl-3-(3,5-dichloropyridin-4-yl)isoxazol-4-yl)methoxy)bicyclo[2.2.2]octan-1-yl)methoxy)-3-(methoxymethyl)picolinic acid] registered a concentration for a half-maximal effect (EC50) of 16 nM. In turn, `O=C(O)c1cccc(OCC23CCC(OCc4c(-c5ccccc5OC(F)(F)F)noc4C4CC4)(CC2)CC3)c1` [Example 77] showed an EC50 of 180 nM. The figure for `COc1ccc(-c2noc(C34CCC(OCc5c(-c6ccccc6C(F)(F)F)noc5C5CC5)(CC3)CC4)n2)cc1C(=O)O` [Example 31] is 370 nM; for `O=C(O)c1cc(C#CC23CCC(OCc4c(-c5c(Cl)cncc5Cl)noc4C4CC4)(CC2)CC3)c2cc[nH]c2c1` [Example 416] it is 40 nM.

`O=C(O)c1ccc(-c2noc(C34CCC(OCc5c(-c6ccccc6OC(F)(F)F)noc5C5CC5)(CC3)CC4)n2)cc1` [Example 2, 4-(5-(4-((5-cyclopropyl-3-(2-(trifluoromethoxy)phenyl)isoxazol-4-yl)methoxy)bicyclo[2.2.2]octan-1-yl)-1,2,4-oxadiazol-3-yl)benzoic acid]: the EC50 amounted to 170 nM. On to `O=C(O)c1ccnc(C23CCC(OCc4c(-c5c(Cl)cccc5Cl)noc4C4CC4)(CC2)CC3)c1` [Example 137, 2-(4-((5-cyclopropyl-3-(2,6-dichlorophenyl)isoxazol-4-yl)methoxy)bicyclo[2.2.2]octan-1-yl)isonicotinic acid], for which the EC50 was found to be 420 nM. The figure for `O=C(O)Cc1ccccc1OCC12CCC(OCc3c(-c4c(Cl)cccc4Cl)noc3C3CC3)(CC1)CC2` [Example 116, 2-(2-((4-((5-cyclopropyl-3-(2,6-dichlorophenyl)isoxazol-4-yl)methoxy)bicyclo[2.2.2]octan-1-yl)methoxy)phenyl)acetic acid] is 900 nM; for `O=C(O)c1cc(OC2COC2)c2cc(OCC34CCC(OCc5c(-c6c(Cl)cncc6Cl)noc5C5CC5)(CC3)CC4)cc(F)c2n1` [Example 312, 6-((4-((5-cyclopropyl-3-(3,5-dichloropyridin-4-yl)isoxazol-4-yl)methoxy)bicyclo[2.2.2]octan-1-yl)methoxy)-8-fluoro-4-(oxetan-3-yloxy)quinoline-2-carboxylic acid] it is 47 nM.

For `O=C(O)c1cccc(NC(=O)C23CCC(C=Cc4c(-c5c(Cl)cccc5Cl)noc4C4CC4)(CC2)CC3)c1Cl` [Example 185], the EC50 was determined as 1400 nM. Molecule `O=C(O)c1ccc(C23CCC(/C=C/c4c(-c5c(Cl)cccc5Cl)noc4C4CC4)(CC2)CO3)cc1` [Example 194, (E)-4-(4-(2-(5-cyclopropyl-3-(2,6-dichlorophenyl)isoxazol-4-yl)vinyl)-2-oxabicyclo[2.2.2]octan-1-yl)benzoic acid] registered an EC50 of 34 nM. `O=C(O)c1cnn2ccc(C#CC34CCC(OCc5c(-c6c(Cl)cncc6Cl)noc5C5CC5)(CC3)CC4)cc12` [Example 395] gave a half-maximal effective concentration (EC50) of 120 nM. The figure for `CC(C)(C(N)=O)c1ccc(C23CCC(/C=C/c4c(-c5c(Cl)cncc5Cl)noc4C4CC4)(CC2)CO3)cc1` [Example 481, (E)-2-(4-(4-(2-(5-cyclopropyl-3-(3,5-dichloropyridin-4-yl)isoxazol-4-yl)vinyl)-2-oxabicyclo[2.2.2]octan-1-yl)phenyl)-2-methylpropanamide] is 510 nM.

One may read the EC50 as the concentration that produces a half-maximal response.
